How the values were obtained:
[1] = Anhydrous crystalline form transformation test; assay type: physicochemical; details: mixed sample of equal amounts of crystalline form A-I and A-IV
SK-MEL-5 = assay: In vitro tumor cell proliferation inhibition (CTG test); assay type: cell-based, human; details: melanoma SK-MEL-5
Experimental: (§1) The tumor cell strains were cultured in an incubator at 37° C. with 5% CO2. The cells were sub-cultured regularly, and those in the logarithmic growth phase were taken for plating. The cells were stained with trypan blue and the viable cells were counted. The cell concentration was adjusted to an appropriate level. The cell suspension was added to each well of the culture plate, and the culture medium without cells was added to the blank control wells. The culture plate was incubated overnight in an incubator at 37° C., 5% CO2, and 100% RH. […] The compound working solution was added to the cell culture plate, and DMSO at the same final concentration was added to the solvent control wells. Then the plate was returned to the incubator for 4-7 days of culture. The cell viability was detected according to the instructions of the Promega CellTiter-Glo (CTG) Luminescent Cell Viability Assay Kit (Promega-G7573).
(§2) The inhibition rate (IR) of the test compound was calculated using the following equation: […]
(§3) The inhibition rates of the compound at different concentrations were calculated in Excel, then the inhibition curve was plotted using GraphPad Prism software and relevant parameters, including the minimum inhibition rate, maximum inhibition rate, and IC50 were calculated. The IC50 was calculated using the following equation:
(§4) [formula] • X: log (concentration) • Y: response value, negatively correlated with X • HillSlope: slope factor

MDA-MB-453 = assay: as above; assay type: cell-based, human; details: 4-7 days
Experimental: as §1, §2, §3, §4

MOLM-13 = assay: as above; assay type: cell-based, human; details: hematological tumor cells MOLM-13
Experimental: as §1, §2, §3, §4

NCI-H211 = assay: as above; assay type: cell-based, human; details: small cell lung cancer cells NCI-H211
Experimental: as §1, §2, §3, §4

MDA-MB-468 (Rb−) = assay: as above; assay type: cell-based, human; details: 4-7 days
Experimental: as §1, §2, §3, §4

MV-4-11 = assay: as above; assay type: cell-based, human; details: hematological tumor cells MV-4-11
Experimental: as §1, §2, §3, §4

Huh-7 = assay: as above; assay type: cell-based, human; details: Rb+ liver cancer cells Huh-7
Experimental: as §1, §2, §3, §4

JHH-7 = assay: as above; assay type: cell-based, human; details: Rb+ liver cancer cells JHH-7
Experimental: as §1, §2, §3, §4

HT-29 = assay: as above; assay type: cell-based, human; details: Rb+ colorectal cancer cells HT-29
Experimental: as §1, §2, §3, §4

Hep3B(Rb−) = assay: as above; assay type: cell-based, human; details: Hep3B(Rb−) liver cancer cells
Experimental: as §1, §2, §3, §4

A2780 = assay: as above; assay type: cell-based, human; details: ovarian cancer cells A2780
Experimental: as §1, §2, §3, §4

COLO205 = assay: as above; assay type: cell-based, human; details: Rb+ colorectal cancer cells COLO205
Experimental: as §1, §2, §3, §4

HCT116 = assay: as above; assay type: cell-based, human; details: Rb+ colorectal cancer cells HCT116
Experimental: as §1, §2, §3, §4

Structure (SMILES): CC(=O)c1c(C)c2cnc(Nc3ccc4c(c3)OC[C@@H]3CN(C5CCN(C)CC5)CCN43)nc2n(C2CCCC2)c1=O [Compound A]
- Experimental results (crystalline form by XRPD) ([1]; n-Butanol/Anisole (v:v = 1:1), 25° C.): form A-I
- Experimental results (crystalline form by XRPD) ([1]; n-Butanol/Anisole (v:v = 1:1), 37° C.): form A-I
- Experimental results (crystalline form by XRPD) ([1]; suspension in n-Butanol, 25° C.): form A-I
- Experimental results (crystalline form by XRPD) ([1]; suspension in n-Butanol, 37° C.): form A-I
- inhibitory activity (SK-MEL-5): good inhibitory activity
- Maximum Inhibition Rate (%) (MDA-MB-453): ~100%
- inhibitory activity (MOLM-13): good inhibitory activity
- inhibitory activity (NCI-H211): good inhibitory activity
- Maximum Inhibition Rate (%) (MDA-MB-468 (Rb−)): exceeding 99%
- inhibitory activity (MV-4-11): good inhibitory activity
- inhibitory activity (Huh-7): good inhibitory activity
- inhibitory activity (JHH-7): good inhibitory activity
- inhibitory activity (HT-29): good inhibitory activity
- inhibitory effect (Hep3B(Rb−)): significant inhibitory effect
- maximum inhibition rate (Hep3B(Rb−)): exceeding 99%
- inhibitory activity (A2780): good inhibitory activity
- inhibitory activity (COLO205): good inhibitory activity
- inhibitory activity (HCT116): good inhibitory activity
